# pEC50: −log10 of the molar value.
# Columns and labels:
# Format in all cases: cell-based
# Vitamin D3 receptor [1] = biological target: T1, Vitamin D3 receptor (Homo sapiens, UniProt P11473); experiment: Transactivation of GAL4-fused VDR ligand binding domain expressed in human HeLa cells after 16 hrs by luciferase reporter gene assay
# T1 sequence (P11473 whole entry): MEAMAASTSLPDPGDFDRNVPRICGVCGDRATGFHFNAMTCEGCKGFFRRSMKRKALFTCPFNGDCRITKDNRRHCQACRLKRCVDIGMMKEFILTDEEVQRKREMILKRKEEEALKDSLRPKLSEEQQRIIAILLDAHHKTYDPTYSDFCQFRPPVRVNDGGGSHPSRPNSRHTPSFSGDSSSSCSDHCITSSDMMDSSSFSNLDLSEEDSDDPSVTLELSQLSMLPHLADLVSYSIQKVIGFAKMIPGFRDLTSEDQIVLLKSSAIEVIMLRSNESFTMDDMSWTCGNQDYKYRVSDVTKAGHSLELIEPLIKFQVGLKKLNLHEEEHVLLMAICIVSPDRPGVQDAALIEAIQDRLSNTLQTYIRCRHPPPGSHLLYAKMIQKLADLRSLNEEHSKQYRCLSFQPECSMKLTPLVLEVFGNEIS
# Vitamin D3 receptor [2] = biological target: T1, Vitamin D3 receptor; experiment: Transactivation of full length human VDR expressed in human HeLa cells assessed as increase in CYP24 transcription after 18 hrs by luciferase reporter gene assay
# [3] = biological target: T2, Vitamin D3 receptor (Homo sapiens) (UniProt P11473); experiment: Ratio of calcitriol EC50 to compound EC50 for full length human VDR expressed in human HeLa cells
# T2 sequence (whole entry): T1 sequence (P11473 whole entry)
SMILES,pEC50 (Vitamin D3 receptor [1]),pEC50 (Vitamin D3 receptor [2]),Ratio EC50 [3]
CC/C(=C\C=C\C(O)(C(F)(F)F)C(F)(F)F)c1cccc(OCc2ccc(CO)c(CO)c2)c1,8.30,–,–
CC/C(=C\C=C\C(O)(C(F)(F)F)C(F)(F)F)c1cccc(CCc2ccc(CO)c(CO)c2)c1,8.77,8.55,–
CCCc1cc(C(O)(CC)CC)ccc1-c1cc(CCc2ccc(CO)c(CO)c2)ccc1C,–,9.30,4
CC/C(=C\C=C\C(O)(CC)CC)c1cccc(OCc2ccc(CO)c(CO)c2)c1,–,7.31,–
CCCc1cc(C(O)(CC)CC)ccc1-c1cc(OCc2ccc(CO)c(CO)c2)ccc1CC,–,8.66,–

# Reference: ChEMBL document CHEMBL2169765, “Structural basis for the accommodation of bis- and tris-aromatic derivatives in vitamin D nuclear receptor” (J Med Chem, 2012)
